The numbers were not newly measured in PubChem BioAssay AID1259409 (Chemical Carcinogenesis Research Information System (CCRIS), 2018), which cites them from elsewhere.

This data set relates to rodent chemically induced tumor inhibition, incidence and multiplicity. The data set is described as follows: CCRIS tumor inhibitor studies. Conditions: Route [Inhibitor]: ORAL.

On to `NC(N)=S`, for which the outcome (Carcinogen: N-BIS-(2-HYDROXYPROPYL)NITROSAMINE [53609-64-6], Dose [Inhibitor]: 0, 0.2% IN DIET 4 WK BEGINNING 1 WK POST CARCINOGEN DOSE (STUDY DURATION: 5 WK), Species: RAT, Strain/Sex: F344/DUCRJ/MALE, Target Tissue: Type of Lesion: THYROID GLAND: ADENOMATOUS GROWTH PATTERN, Dose [Carcinogen]: 2800 MG/KG BW ONCE (STUDY DURATION: 5 WK), Promoter: NONE) is reported as 0%, 30%, -100%, not significant.

Turning to `COc1ccc([SeH])cc1`, where the note is “Carcinogen: BENZO[A]PYRENE, 50-32-8, Dose [Inhibitor]: 0, 3.3 UMOL/G DIET BEGINNING 1 WK PRIOR TO CARCINOGEN TREATMENT AND CONTINUING FOR 1 WK POST CARCINOGEN TREATMENT FOLLOW, Species: MOUSE, Strain/Sex: CD-1/FEMALE, Target Tissue: Type of Lesion: FORESTOMACH: PAPILLOMA, Dose [Carcinogen]: 1 MG IN 0.2 ML CORN OIL 2/WK FOR 4 WK, Promoter: NONE USED”, the “tumour outcome (control, treated, inhibition, significance)” value is on record as 85%, 75%, 12%, not significant. Take `CS(=O)(=O)c1ccc(C2=C(c3ccccc3)C(=O)OC2)cc1`: the “tumour outcome (control, treated, inhibition, significance)” value (Carcinogen: N-METHYL-N-NITROSOUREA, 684-93-5, Dose [Inhibitor]: 0.001% IN DIET, BEGINNING 7 D BEFORE FIRST CARCINOGEN DOSE FOR 19 WK (STUDY DURATION: 19 WK), Species: RAT, Strain/Sex: SPRAGUE-DAWLEY/FEMALE, Target Tissue: Type of Lesion: MAMMARY GLAND: TUMOR, Dose [Carcinogen]: 50 MG/KG 1 WK FOR 2 WK) is 16/23 (69.6%), 10/24 (41.7%), 40%, not significant and the “tumour outcome (control, treated, inhibition, significance)” value (Carcinogen: N-METHYL-N-NITROSOUREA, 684-93-5, Dose [Inhibitor]: 0.005% IN DIET, BEGINNING 7 D BEFORE FIRST CARCINOGEN DOSE FOR 19 WK (STUDY DURATION: 19 WK), Species: RAT, Strain/Sex: SPRAGUE-DAWLEY/FEMALE, Target Tissue: Type of Lesion: MAMMARY GLAND: TUMOR, Dose [Carcinogen]: 50 MG/KG 1 WK FOR 2 WK) is 16/23 (69.6%), 10/25 (40%), 42.5%, p< 0.05.
